{"source": "paper PMC3823594", "about": "“Conformational Changes Underlying Pore Dilation in the Cytoplasmic Domain of Mammalian Inward Rectifier K^+ Channels” (PLoS ONE, 2013)", "assay_in_all_cases": "Two-electrode voltage clamp, ACh-dependent (m2R-dependent) K+ current activation", "format_in_all_cases": "cell-based, mouse", "key": {"Kir3.2 M313D": {"test_system": "Kir3.2 M313D", "conditions": "Kir3.2 M313D with porcine m2R in Xenopus oocytes; −120 mV; Hill equation fit, min not zero", "text": "(§1) The mouse Kir3.2d isoform was subjected to functional analyses. The amino acid numbers correspond to the longest mouse Kir3.2 isoform. Point mutations were introduced using the QuikChange site-directed mutagenesis kit (Stratagene, La Jolla, CA), and the presence of the mutations was confirmed by direct DNA sequencing. The care of Xenopus laevis was in accordance with the guideline of the Institute of Experimental Animal Sciences, Osaka University. The protocol was approved by the Animal Experiment Committee of Osaka University. The frogs were deeply anesthetized by immersing in 0.2% tricaine methanesulfonate for 20 min at 18°C. A portion of an ovary lobe was surgically removed and incubated with collagenase to remove follicular cells. The oocytes were injected with the cRNAs of Kir3.2 and porcine m2-muscarinic receptor (m2R), and maintained in modified Barth’s solution at 18°C with daily solution changes. Electrophysiological studies were undertaken 48–72 h later at room temperature (20–25°C). Two-electrode voltage-clamp recordings from oocytes were performed using a GeneClamp 500B amplifier (Axon Instruments, Sunnyvale, CA). […] The bath solution contained 40 mM KCl, 50 mM NaCl, 3 mM MgCl2, 0.15 mM niflumic acid, and 5 mM HEPES-KOH (pH 7.4). The currents were recorded in the absence or presence of various concentrations of acetylcholine (ACh). Ba^2+ (3 mM) was added at the end of the recording to estimate the endogenous leak current. The data are expressed as mean values ± standard error of the mean. For the quantitative estimation of ACh-dependent current responses of the wild-type (WT) and mutant channels, the current amplitudes at the end of test pulses at each ACh concentration ([ACh]) were fitted using the following equation:\n(§2) I=min+[(max−min)/(1+(EC50/[ACh])^nH)]\n(§3) where I is the current amplitude measured at the [ACh], n H is the Hill coefficient, and EC50 is the concentration that induces 50% of the maximal response. […] The values of n H and EC50 were calculated using a non-linear least-squares best fit (SigmaPlot 9; Systat Software). Statistical analyses were performed by one-way ANOVA with post-hoc tests."}, "Kir3.2 M313Q": {"test_system": "Kir3.2 M313Q", "conditions": "Kir3.2 M313Q with porcine m2R in Xenopus oocytes; −120 mV; Hill equation fit", "text": "as §1, §2, §3"}, "Kir3.2 E236R": {"test_system": "Kir3.2 E236R", "conditions": "Kir3.2 E236R with m2R in Xenopus oocytes; various concentrations of ACh; end of test pulse to −120 mV", "text": "The mouse Kir3.2d isoform was subjected to functional analyses. The amino acid numbers correspond to the longest mouse Kir3.2 isoform. Point mutations were introduced using the QuikChange site-directed mutagenesis kit (Stratagene, La Jolla, CA), and the presence of the mutations was confirmed by direct DNA sequencing. The care of Xenopus laevis was in accordance with the guideline of the Institute of Experimental Animal Sciences, Osaka University. The protocol was approved by the Animal Experiment Committee of Osaka University. The frogs were deeply anesthetized by immersing in 0.2% tricaine methanesulfonate for 20 min at 18°C. […] The currents were recorded in the absence or presence of various concentrations of acetylcholine (ACh). […] The data are expressed as mean values ± standard error of the mean. For the quantitative estimation of ACh-dependent current responses of the wild-type (WT) and mutant channels, the current amplitudes at the end of test pulses at each ACh concentration ([ACh]) were fitted using the following equation: […]\nFigure 6 Introduction of reverse charge at position 236 of Kir3.2. […] Typical current traces of the E236R mutant recorded in the presence of various concentrations of ACh are shown. […] The current amplitudes at the end of the test pulse were normalized to that recorded at -100 mV. […]"}}, "data": [{"smiles": "CC(=O)OCC[N+](C)(C)C", "note": "[ACh, acetylcholine]", "values": [{"measurement": "EC50", "setting": "Kir3.2 M313D", "result": "130 ± 10", "unit": "nM"}, {"measurement": "Hill coefficient", "setting": "Kir3.2 M313D", "result": "0.73 ± 0.06"}, {"measurement": "EC50", "setting": "Kir3.2 M313Q", "result": "50 ± 5", "unit": "nM"}, {"measurement": "Hill coefficient", "setting": "Kir3.2 M313Q", "result": "0.81 ± 0.04"}, {"measurement": "Sensitivity of whole-cell K+ current to m2R-stimulation", "setting": "Kir3.2 E236R", "result": "insensitive"}]}]}
